Data reported in US9023354B2, “Combination therapy with MDM2 and EFGR inhibitors” (priority 2010, dated 2015).
Read-outs that look alike come from different tables or passages of the source. Blank lines part the entries; values can stand above or below the compound they belong to.

Key:
[1] = test system: A431 cells; assay: Caspase 3/7 activity, measurement of apoptosis; type: cell-based; settings: 10 μM compared to 10 μM Tarceva
[2] = test system: A431 cells; assay: A431 cell proliferation assay (MTT), alone and in combination with Tarceva; type: cell-based; settings: for synergistic effects with Tarceva in A431 cell proliferation (in words) / A431 Cell Proliferation CI Value: combination with Tarceva; for A431 Cell Proliferation CI Value: CI <0.8 indicates synergy
[3] = test system: p53-induced reporter gene activity; assay: p53 reporter gene assay in HEK293 cells; type: cell-based; settings: 10 μM
Description: This example describes an assay that measures the ability of compounds to stimulate p53-induced reporter gene activity. In order for p53 activity to be observed, the interaction of p53 with MDM2 must be inhibited. Methods are according to Examples 1-5 unless otherwise specified.
HEK293 cells were transiently transfected with the inducible p53-responsive firefly luciferase reporter and constitutively-expressing Renilla construct. After 16 hrs of transfection at 37° C., 5% CO2, the transfection media was removed and 200 μl/well of assay media was added. The cells were then incubated for 8 hrs at 37° C., 5% CO2.
[…] of compound(s) was added to the cells and incubated for 16 hrs at 37° C. and 5% CO2. The cells were carefully washed with 200 μl of PBS. 20 μl_of lysis buffer was then added to each well and incubated at room temperature for 15 minutes with shaking.
The lysis buffer supernatant was transferred to a white/opaque CoStar 96-well plate and 100 μl of firefly luceriferase assay substrate was added. The luminescence in each well was determined using a Polarstar plate reader.
100 μl of Stop and Glow reagent was added to each well, mixed, and the luminescence generated by the Renilla luciferase was determined using a Polarstar plate reader. The Renilla signal was used to normalize the transfection efficiency and cell viability.

[4] = biological target: p53/MDM2 binding (full length MDM2) (Homo sapiens (Human), UniProt Q00987); assay: AlphaScreen p53/MDM2 binding with full length GST-MDM2; settings: FIG. 1, read-out: inhibition of p53/MDM2 binding EC50
[5] = biological target: p53/MDM2 binding (Homo sapiens (Human), UniProt Q00987); assay: AlphaScreen measurement of p53/MDM2 interaction (truncated GST-MDM2 aa 1-150)
Description: The following example describes an assay that measured the ability of compounds to inhibit the binding of p53 to MDM2 using the AlphaScreen assay technology (PerkinElmer). […] Recombinant, truncated, human, N-terminal GST-MDM2 (aa 1-150) was obtained from GeneScript. Wild-type, full length human N-terminal 6-his p53 was purchased from SignalChem.
Resulting in a final reaction volume of 24 μl PBS, 0.1% Tween-20, and 10% glycerol, 30 ng of MDM2 was added, followed by the addition of 10 of compound diluted in 100% DMSO that provided a final DMSO concentration of 4%. 30 ng of p53 was then added, mixed, and incubated at room temperature for 1 hour. Glutathione donor beads and Nickel acceptor beads (0.5 μg each; PerkinElmer) were added under subdued lighting conditions to a final reaction volume of 30 μl/well in a 96 well, ½ volume Proxima plate. The reaction was incubated at room temperature with shaking for 18 hrs in the dark. Analysis was then performed on a PerkinElmer EnSpire plate reader to determine the ability of compounds to inhibit the binding of p53 to MDM2.

[6] = Stability toward liver microsome incubation; type: in vitro ADME
[7] = test system: A549 cells; assay: DNA fragmentation (Cell Death Detection ELISA), measurement of apoptosis; settings: for activation at 1 µM / activation at 10 µM: Homo sapiens
Description: The plates were allowed to incubate overnight @ 37° C., 5% CO2. On day 2, the media was removed from the plates and 160 μl media containing 5% FBS was added. 40 μl of media-containing test compound in 100% DMSO (prepared at 5× the dosing concentration) was added to the existing media resulting in a final DMSO concentration of 0.5%. Cells were incubated in the presence of a compound for 24 hrs @ 37° C., 5% CO2.
After 24 hrs, the abovementioned plates were centrifuged at 200×g for 10 min. The media was removed by gently inverting the plate and disposing of the media onto a paper towel. The plates were tapped gently to remove excess media. 200 μl lysis buffer was added to each well, and mixed by shaking at 300 rpm. The plates were incubated at room temperature for 30 min. The plates were centrifuged at 200×g for 10 min and 20 μl of lysis supernatant was removed for use in ELISA analysis to detect cell death.
20 μl of the cell lysis supernatant was placed into streptavidin-coated plates with 20 μl positive control and 20 μl incubation buffer negative control. Add 80 μl Immunoreagent (for DNA fragment detection) to each well. The wells were covered with foil adhesive and shaken at 300 rpm for 2 h at room temperature. The supernatant solution was removed and the wells were washed 3 times with 300 μl incubation buffer. 100 μl of ABTS detection substrate was added to each well. The wells were incubated on a plate shaker at 250 rpm for approximately 10-20 min. 100 μl ABTS of stop buffer was then added. […] The absorbance measures the colored product spectrophotometrically, correlating with apoptosis.
The percent increase in DNA fragmentation produced by compounds at a concentration of 1 and 10 μM were compared to background, and to the response produced by 500 nM staurosporin.

[8] = test system: apoptosis-related proteins in A549 cells; assay: Proteome profile of apoptosis-related proteins; type: cell-based, human; settings: 5 μM
Source text: This example describes an assay that measured the relative expression levels of 35 apoptosis-related proteins in a single sample of whole cell extract. Methods are according to Examples 1-2 unless otherwise specified.
The protocol and reagents were purchased from R&D systems (Human apoptosis array kit; cat. #ARY009). The kit consisted of an antibody array spotted on nitrocellulose membranes with each specific antibody printed in duplicate. The detection antibodies were biotinylated so they could be used with a streptavidin-HRP conjugate designed for chemiluminescent imaging. The protocol was modified to utilize the LiCor infrared imaging technology by substituting an infrared 680 nm-tagged streptavidin.
The following day, two μl of compound dilutions in 100% DMSO were added to the appropriate wells resulting in a final concentration of 5 μM. The plates were then incubated for 6 hours at 37° C., 5% CO2, and 85% relative humidity. Following incubation, the cells were washed with 2 ml of PBS, then lysed with 500 μl/well of Lysis buffer, supplemented with a 1/200 dilution of mammalian protease inhibitor cocktail (Sigma Aldrich). The plates were shaken for 30 min at room temperature, spun @ 14,000×g for 5 minutes. 250 μl of the supernatant was removed and added to 1.25 ml of Assay buffer 1. The supernatant and Assay buffer 1 were incubated with membranes overnight at room temperature with shaking.
The following day, the membranes were washed 3 times for 10 min each, with 1× wash buffer in individual 50 ml Falcon tubes at room temperature with rotation. The membranes were incubated with a 1/100 dilution of biotinylated detection antibodies for 3 hours at room temperature with shaking.
The membranes were washed, then incubated with a 1/1000 dilution of IR 680 nm-labeled streptavidin (LiCor) for 60 minutes with shaking in the dark. The membranes were again washed. Excess buffer was blotted from membranes, placed between two pieces of transparent plastic and imaged on the LiCor infrared imager. The LiCor Odyssey software is used to quantitate the pixel intensity of each spot in the array.
First, several compounds were evaluated in a proteome profiling array system containing antibodies to 35 apoptosis-related proteins. In this assay (see Example 3), the relative expression levels of these proteins in cell extracts are measured from treated and non-treated A549 cells.

[9] = test system: p53 and phospho-p53 (S15) in A549 NSCLC cells; assay: p53 In-Cell Western; type: cell-based, human; settings: about 1-3 μM
[10] = Homo sapiens, A-431, A431 cells, further studies, Example 9, Table 7A, read-out: A431 Cell Proliferation (IC50 Value)
[11] = Homo sapiens, A-431, A431 cells, preliminary assessment, Example 8, Table 6A, read-out: A431 Cell Proliferation (IC50)
[12] = Table 7C, read-out: p53/MDM2 IC50 Value
[13] = Table 9, read-out: Inhibition of p53/MDM2 Binding IC50 Value
[14] = A431 cells, further studies, Example 9, Table 7A, read-out: A431 Cell Proliferation (IC50 Value)
[15] = A549, read-out: % Inc. Relative to Staurosporin (500 nM), DNA fragmentation
[16] = A549, read-out: % Inc. over Background, DNA fragmentation

Chain of p53/MDM2 binding (Q00987 1-150): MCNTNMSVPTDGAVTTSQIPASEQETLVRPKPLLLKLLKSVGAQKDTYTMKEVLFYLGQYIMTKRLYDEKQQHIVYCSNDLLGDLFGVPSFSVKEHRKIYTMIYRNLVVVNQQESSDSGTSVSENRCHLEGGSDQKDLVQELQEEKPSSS
Chain of p53/MDM2 binding (full length MDM2) (Q00987 whole entry, the tested form may be a part): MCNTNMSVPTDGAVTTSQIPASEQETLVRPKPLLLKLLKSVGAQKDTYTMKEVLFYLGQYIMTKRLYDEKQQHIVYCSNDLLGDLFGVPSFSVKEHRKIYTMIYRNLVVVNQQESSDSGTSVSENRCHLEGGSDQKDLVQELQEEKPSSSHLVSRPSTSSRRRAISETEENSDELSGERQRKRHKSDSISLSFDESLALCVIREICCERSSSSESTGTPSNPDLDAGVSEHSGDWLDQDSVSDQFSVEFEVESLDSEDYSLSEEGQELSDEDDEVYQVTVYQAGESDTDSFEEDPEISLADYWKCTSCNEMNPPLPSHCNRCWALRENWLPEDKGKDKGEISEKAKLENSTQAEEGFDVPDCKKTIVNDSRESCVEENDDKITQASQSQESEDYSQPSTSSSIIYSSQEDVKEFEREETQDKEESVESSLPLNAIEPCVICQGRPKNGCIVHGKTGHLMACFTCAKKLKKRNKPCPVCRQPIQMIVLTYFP

- IC50 [2, 10]: 3700 nM
- IC50 [2, 11]: 3700 nM
- EC50 [4]: 270 nM
- IC50 [5, 12]: 3600 nM
- IC50 [5, 13]: 4200 nM
Structure (SMILES): COc1ccc(C(Nc2cc(C)ccn2)c2ccc3cccnc3c2O)cc1O (centres unmarked) [AD4-1505]
- Caspase 3/7 activity % Increase Relative to Tarceva [1]: 45%
- synergistic effects with Tarceva in A431 cell proliferation (in words) [2]: produced the greatest effects
- A431 Cell Proliferation CI Value ([2]; Example 8, Table 6B): 0.45
- A431 Cell Proliferation CI Value ([2]; Example 9, Table 7B): 0.29
- stimulation of p53 reporter gene activity [3]: 42.5 fold

- IC50 [2, 14]: 1800 nM
- IC50 ([2]; A431 cells, preliminary assessment, Example 8, Table 6A, read-out: A431 Cell Proliferation (IC50)): 1800 nM
Structure (SMILES): Cc1ccc(C)c(C(Nc2cccnc2)c2cc(Cl)c3cccnc3c2O)c1 (centres unmarked) [AD4-10944]
- stimulation of p53 reporter gene activity [3]: 7.5 fold

Structure (SMILES): CCOc1ccc(C(Nc2ccccn2)c2cc(Cl)c3cccnc3c2O)cc1 (centres unmarked) [AD4-10953]
- stimulation of p53 reporter gene activity [3]: 9.7 fold

- IC50 [2, 10]: 3400 nM
- IC50 [2, 11]: 3400 nM
- EC50 [4]: 100 nM
- IC50 [5, 12]: 2000 nM
- IC50 [5, 13]: 2000 nM
Structure (SMILES): Cc1ccnc(NC(c2ccc3cccnc3c2O)c2sccc2C)c1 (centres unmarked) [AD4-10963]
- Caspase 3/7 activity % Increase Relative to Tarceva [1]: 38%
- synergistic effects with Tarceva in A431 cell proliferation (in words) [2]: produced the greatest effects
- A431 Cell Proliferation CI Value ([2]; Example 8, Table 6B): 0.43
- A431 Cell Proliferation CI Value ([2]; Example 9, Table 7B): 0.63

- IC50 [2, 10]: 2000 nM
- stability (toward liver microsome incubation) [6]: increased stability over AD4-10628
Structure (SMILES): Cc1cc(Cl)cnc1NC(c1ccc(C(F)(F)F)cc1)c1ccc2cccnc2c1O (centres unmarked) [AD4-13041]
- A431 Cell Proliferation CI Value ([2]; Example 9, Table 7B): 0.69

- IC50 [2, 10]: 2200 nM
- stability (toward liver microsome incubation) [6]: increased stability
Structure (SMILES): Cc1cc(Cl)cnc1NC(c1ccc(C(F)(F)F)cc1F)c1ccc2cccnc2c1O (centres unmarked) [AD4-13042]
- A431 Cell Proliferation CI Value ([2]; Example 9, Table 7B): 0.81

- stability (toward liver microsome incubation) [6]: increased stability over AD4-10628
Structure (SMILES): Oc1c(C(Nc2ccc(Cl)cn2)c2ccc(C(F)(F)F)cc2)ccc2cccnc12 (centres unmarked) [AD4-13053]
- A431 Cell Proliferation CI Value ([2]; Example 9, Table 7B): 0.78

Structure (SMILES): Oc1c(C(Nc2ncc(C(F)(F)F)cc2F)c2ccc(Cl)cc2Cl)ccc2cccnc12 (centres unmarked) [AD4-13165]
- activation at 1 µM [7, 15]: 24%
- activation at 10 µM [7, 15]: 74%
- activation at 1 µM [7, 16]: 172%
- activation at 10 µM [7, 16]: 582%
- phosphorylated forms of p53 [8]: increased all three phosphorylated forms of p53
- stability (toward liver microsome incubation) [6]: increased stability

- IC50 [2, 14]: 2200 nM
Structure (SMILES): Cc1cc(Cl)cnc1NC(c1ccc2cccnc2c1O)c1c(F)c(F)c(OCC(F)(F)F)c(F)c1F (centres unmarked) [AD4-13243]
- DNA fragmentation / apoptosis (in words) ([7]; A549 cells): increased DNA fragmentation
- % Inc. over Background, DNA fragmentation ([7]; A549 cells, 1 μM): 551%
- % Inc. over Background, DNA fragmentation ([7]; A549 cells, 10 μM): 716%
- S15p-p53 (phosphorylated S15 p53) [9]: significantly increased
- total p53 expression [9]: significantly increased
- phosphorylated forms of p53 [8]: increased all three phosphorylated forms of p53
